Measurements taken from US5610171A, “Inhibition of metastasis in patients having cancer with pyridyloxazole-2-ones” (Merrell Pharmaceuticals Inc., priority 1995, dated 1997).
Entries after “also recorded” stand apart in the source; their conditions may differ. Like-named read-outs stand apart in the source and are kept apart here.

How the values were obtained:
fibrinogen = assay: Adhesion of B16F1 cells to fibrinogen; assay type: cell-based; conditions: 24 hours
Description: (§1) Adhesion of B16F1 Cells to Basement Membrane Proteins
(§2) Adhesion proteins (2 μg/well) were coated onto Immulon I Removawells from Dynatech and incubated for 1 hour at 37° C. The wells were then blocked for 1 hour with 400 μl PBS, pH 7.2 containing 1% bovine serum albumin (BSA) at 37° C. Prior to addition of the cell suspension, the blocking solution was aspirated.
(§3) Sub-confluent cells were washed twice with HBSS and removed form flasks by incubation for 10 minutes at 37° C. with PBS (pH 7.2), 2 mM EDTA, and 1% BSA. The cells were washed twice with MEM containing 20 mM HEPES and 0.1% BSA and resuspended in the same medium to give a cell density of […].
(§4) Cells were added to wells in 50 μl (5×10^4 cells) and incubated at 37° C. The wells were aspirated and washed three times with 400 μl PBS (pH 7.2) containing 0.1% BSA. Wells were detached and counted in 5 ml Beckman Ready Protein. Blanks were not coated with protein but were blocked with BSA as described above.

[1] = tested on: extracellular matrix/basement membrane proteins; assay: Adhesion of B16F1 cells to extracellular matrix/basement membrane proteins; assay type: cell-based, murine
Description: as §1, §2, §3, §4

[2] = tested on: B16F1 cells / human umbilical vein endothelial cells (HUVEC); assay: Adhesion of B16F1 melanoma cells to endothelial cells (HUVEC); assay type: cell-based, murine B16F1 cells; human HUVEC; conditions: for Adherent B16F1 Cells, Mean +/- SE / activity at 50 µM: 50 μM, 24 hours treatment; for activity at 50 µM: Mus musculus, read-out: B16F1 cells adhered expressed as percent of control
Description: Adhesion of Tumor Cells to Endothelial Cells
Round 15 mm Thermanox tissue culture cover slips from Lux were placed in Corning 12-well, 22 mm diameter tissue culture clusters. HUVEC (2×10^6) were added to each well and grown to confluency. Sub-confluent B16F1 cells were labeled with 1 μCi/ml [^3 H]-thymidine (New England Nuclear, 78.5 Ci/mmol) for 24 hours at 37° C.
In preparation for the adhesion assay, the tissue culture wells containing either HUVEC or no cells were blocked with MEM containing 20 mM HEPES and 1% BSA for 1 hour at 37° C. B16F1 cells were removed from the flasks as described above for adhesion to basement membrane proteins and diluted to a density of 2×10^5 viable cells/ml in MEM (viability determined by trypan blue exclusion).
Blocking solution was aspirated from the wells and 1 ml of cells were added per well and incubated at 37° C. Nonadherent cells were washed from coverslips as described in Wright, P. S., Cross-Doersen, D., McCann, P. P. and Bitonti, A. J., Plasmodium falciparum: a rapid assay for cytoadherence of [^3 H]-hypoxanthine-labeled infected erythrocytes to human melanoma cells, Exp. Parasitol., 71: 346-349, 1990. Coverslips were retrieved from the well with forceps and dipped 10 times into a beaker of 100 ml MEM. Coverslips were placed into scintillation vials and counted in 10 ml Beckman Ready Protein.
B16F1 cells were treated with 4-propyl-5(4-pyridinyl)-
(3H)-oxazolone for 24 hours at 37° C. Cells were then
harvested and added to wells containing confluent HUVEC
cells and incubated for the time indicated at 37° C. Details
are given in Materials and Methods.

fibronection = assay: Adhesion of B16F1 cells to fibronectin; assay type: cell-based; conditions: 24 hours
Description: as §1, §2, §3, §4

CCCc1[nH]c(=O)oc1-c1ccncc1 [Compound 1, 4-propyl-5(4-pyridinyl)-2(3H)-oxazolone]
adhesion to fibrinogen (fibrinogen): most sensitive to inhibition | attachment to extracellular matrix/basement membrane proteins ([1]; 24 hours): decreased adhesion to some basement membrane proteins; also recorded: less adherent than untreated cells | potency for inhibition of adhesion relative to H-7 ([1]; versus H-7): more potent than H-7 | potency for inhibition of adhesion relative to staurosporine ([1]; versus staurosporine): significantly less potent than staurosporine | adherence to HUVEC [2]: decreased adhesion; also recorded: less adherent | Adherent B16F1 Cells, Mean +/- SE ([2]; 5 min adhesion): 4,513 cells | Adherent B16F1 Cells, Mean +/- SE ([2]; 10 min adhesion): 7,828 cells | Adherent B16F1 Cells, Mean +/- SE ([2]; 20 min adhesion): 48,750 cells | Adherent B16F1 Cells, Mean +/- SE ([2]; 30 min adhesion): 92,084 cells | Adherent B16F1 Cells, Mean +/- SE ([2]; 60 min adhesion): 136,950 cells | activity at 50 µM ([2]; B16-F1, 5 min, 5 min adhesion): 126% | activity at 50 µM ([2]; B16-F1, 10 min, 10 min adhesion): 39% | activity at 50 µM ([2]; B16-F1, 20 min, 20 min adhesion): 60% | activity at 50 µM ([2]; B16-F1, 0.5 h, 30 min adhesion): 71% | activity at 50 µM ([2]; B16-F1, 1 h, 60 min adhesion): 110% | adherence to fibronection (fibronection): inhibited minimally or not at all
